Data taken from patent US20090291088A1, “THERAPEUTIC COMBINATIONS OF ANTI-IGF-1R ANTIBODIES AND OTHER COMPOUNDS” (Biogen Idec MA Inc., priority 2008, published 2009).

Columns and labels:
[1] = system: NSCLC, pancreatic, and colon cancer cell lines; test: Cell viability, M13-C06 and PD0325901 alone or combined; format: cell-based; details: PD0325901 single agent
Description: Cells were plated at 5000 cells/well in 96-well tissue culture plates in RPMI-1640 containing 10% fetal bovine serum, then treated with M13-C06 and PD0325901 as single agents or in combination at 1:3 serial dilutions with a starting concentration of 200 nM for M13-C06 and 10 microM for PD0325901. Cell viability was determined three or five days later by measuring ATP levels with CELL TITER GLO™ reagent from Promega.

IGF-1R-Fc = test: Surface plasmon resonance analysis of the IGF-1R-Fc mutant library (46 mutants); format: binding, human; details: for C06 binding: M13-C06 Fab; for C06 binding / C03 binding / G11 binding / P1E2 binding / αIR3 binding: KD relative to WT hIGF-1R-Fc; for C03 binding: M14-C03 Fab; for G11 binding: M14-G11 Fab; for P1E2 binding: P1E2 antibody; for αIR3 binding: αIR3 antibody; for loss in affinity for M14-G11 Fab based on the measured KD: mutant versus wild-type
Description: Surface plasmon resonance (SPR) experiments were performed on a Biacore 3000 instrument set to 25° C. Both mIGF-1R-Fc and hIGF-1R-Fc bind with high apparent affinity to research grade CM5 sensorchip surfaces containing immobilized M13-C06, M14-C03, and M14-G11. The antibody sensorchip surfaces were prepared by injecting each antibody (diluted 100 μg/mL in 10 mM Acetate, pH 4.0) over EDC/NHS-activated sensorchip surfaces according to the standard protocol of the manufacturer. The ability of mIGF-1R-Fc to bind the antibody surfaces was the result of high apparent avidity of the protein. Both hIGF-1R-Fc and mIGF-1R-Fc proteins oligomerize due to the incorporation of two separate homodimeric regions (IGF-1R and IgG1-Fc). To distinguish between actual high affinity antibody binding to hIGF-1R-Fc and low affinity antibody binding to mIGF-1R-Fc, the receptor-Fc fusions were captured on the M13-C06 and M14-G11 sensorchip surfaces followed by an additional injection of antibody (αIR3 and P1E2) or antibody Fab (M13-C06, M14-C03, and M14-G11). […] After, completion of the receptor-Fc loading step, flow rates were elevated to 5 μl/min. Solutions containing M13-C06 Fab or αIR3 antibody at 10 nM, 3 nM, or 1 nM or M14-C03 Fab, M14-G11 Fab, or P1E2 antibody at 30 nM, 10 nM, or 3 nM were injected (50 μL) subsequent to the loading of each receptor-Fc construct. Dissociation was measured for 7 minutes after the antibody injections were complete. Finally, the flow rate was elevated to 30 μL/min and the chip surfaces were regenerated by 2×10 μL injections of 0.1 M glycine, pH 2.
M13-C06, M14-C03, M14-G11, P1E2 and αIR3 were assayed for their ability to interact with each of the mutant IGF-1R-Fc fusion constructs using surface plasmon resonance (Biacore). To remove the uncertain concentrations of the IGF-1R-Fc fusion constructs as a variable in the assay, each mutant construct was captured on a research grade CM5 chip containing ˜10,000 RU immobilized […], M14-C03, and M14-G11 antibody. To enhance our ability to visualize attenuations in antibody binding to the captured mutant IGF-1R constructs, we utilized enzymatically derived M13-C06, M14-C03, and M14-G11 antigen binding fragments (Fabs).

IGF-1R = test: Biacore analysis of the IGF-1R-Fc mutant library: M13-C06 Fab binding to receptor-Fc captured on M13-C06 chip; parameters: species or system human; details: for Biacore Relative RUmax: M13-C06 Fab binding to mutant hIGF-1R-Fc captured on M13-C06 chip
Excerpt: Both mIGF-1R-Fc and hIGF-1R-Fc bind with high apparent affinity to the M13-C06, M14-C03, and M14-G11 sensorchip surfaces described above due to their highly multivalent nature induced by the incorporation of two separate homodimeric regions (IGF-1R and IgG1-Fc). To distinguish between the actual high affinity binding hIGF-1R-Fc to M13-C06 and the low affinity binding of mIGF-1R-Fc to M13-C06, the receptor-Fc fusions were captured on the M13-C06 sensorchip surface followed by an additional soluble M13-C06 Fab binding event. […] After, completion of the receptor-Fc loading step, flow rates were elevated to 5 μl/min. 10 nM, […], and 1 nM M13-C06 Fab concentrations were injected (50 μL) subsequent to the loading of each receptor-Fc construct. At the end of each sensorgram, the flow rate was elevated to 30 μl/min and the chip surface was regenerated by 2×10 μL injections of 0.1 M glycine, pH 2.

Molecule | cell growth ([1]; 7 NSCLC cell lines) | cell growth ([1]; BxPC3 and Panc-1) | cell growth ([1]; H460 and H1650) | cell growth ([1]; MiaPaCa2 and Su86.86) | C06 binding (IGF-1R-Fc) | C03 binding (IGF-1R-Fc) | G11 binding (IGF-1R-Fc) | P1E2 binding (IGF-1R-Fc) | αIR3 binding (IGF-1R-Fc) | Biacore Relative RUmax (IGF-1R) | loss in affinity for M14-G11 Fab based on the measured KD (IGF-1R-Fc) | effect of mutation on M13-C06 and M14-C03 Fab binding (IGF-1R-Fc) | binding activity toward M13-C06 (IGF-1R; SPR and tr-FRET, both assays)
O=C(NOC[C@H](O)CO)c1ccc(F)c(F)c1Nc1ccc(I)cc1F [PD0325901, (R)—N-(2,3-dihydroxypropoxy)-3,4-difluoro-2-(2-fluoro-4-iodophenylamino)benzamide, reference compound] | five of them were sensitive to PD0325901 inhibition | intermediate response | showed less response | sensitive to PD0325901 as a single agent |  |  |  |  |  |  |  |  | 
SD006: hIGF-1R-Fc mutant A227K |  |  |  |  | NE (No effect (NE): measured KD within 2.5-fold of WT hIGF-1R-Fc) | NE (No effect (NE): measured KD within 2.5-fold of WT hIGF-1R-Fc) | NE (No effect (NE): measured KD within 2.5-fold of WT hIGF-1R-Fc) | NE (No effect (NE): measured KD within 2.5-fold of WT hIGF-1R-Fc) | NE (No effect (NE): measured KD within 2.5-fold of WT hIGF-1R-Fc) | 1.7 |  |  | 
SD007: hIGF-1R-Fc mutant N237G |  |  |  |  | NE (No effect (NE): measured KD within 2.5-fold of WT hIGF-1R-Fc) | NE (No effect (NE): measured KD within 2.5-fold of WT hIGF-1R-Fc) | NE (No effect (NE): measured KD within 2.5-fold of WT hIGF-1R-Fc) | NE (No effect (NE): measured KD within 2.5-fold of WT hIGF-1R-Fc) | NE (No effect (NE): measured KD within 2.5-fold of WT hIGF-1R-Fc) | 1.3 |  |  | 
SD008: hIGF-1R-Fc mutant S257F (Table 20), S258F (Table 17) |  |  |  |  | NE (No effect (NE): measured KD within 2.5-fold of WT hIGF-1R-Fc) | NE (No effect (NE): measured KD within 2.5-fold of WT hIGF-1R-Fc) | W (Weak (W): measured KD between 2.5-10-fold higher than WT) | W (Weak (W): measured KD between 2.5-10-fold higher than WT) | NE (No effect (NE): measured KD within 2.5-fold of WT hIGF-1R-Fc) | 1.5 | approximately 3 fold |  | 
SD009: hIGF-1R-Fc mutant E264K |  |  |  |  | NE (No effect (NE): measured KD within 2.5-fold of WT hIGF-1R-Fc) | NE (No effect (NE): measured KD within 2.5-fold of WT hIGF-1R-Fc) | NE (No effect (NE): measured KD within 2.5-fold of WT hIGF-1R-Fc) | NE (No effect (NE): measured KD within 2.5-fold of WT hIGF-1R-Fc) | NE (No effect (NE): measured KD within 2.5-fold of WT hIGF-1R-Fc) | 0.6 |  |  | 
SD010: hIGF-1R-Fc mutant G271D |  |  |  |  | NE (No effect (NE): measured KD within 2.5-fold of WT hIGF-1R-Fc) | NE (No effect (NE): measured KD within 2.5-fold of WT hIGF-1R-Fc) | NE (No effect (NE): measured KD within 2.5-fold of WT hIGF-1R-Fc) | NE (No effect (NE): measured KD within 2.5-fold of WT hIGF-1R-Fc) | NE (No effect (NE): measured KD within 2.5-fold of WT hIGF-1R-Fc) | 0.8 |  |  | 
SD011: hIGF-1R-Fc mutant G285S_S286T |  |  |  |  | NE (No effect (NE): measured KD within 2.5-fold of WT hIGF-1R-Fc) | NE (No effect (NE): measured KD within 2.5-fold of WT hIGF-1R-Fc) | NE (No effect (NE): measured KD within 2.5-fold of WT hIGF-1R-Fc) | NE (No effect (NE): measured KD within 2.5-fold of WT hIGF-1R-Fc) | NE (No effect (NE): measured KD within 2.5-fold of WT hIGF-1R-Fc) | 1.8 |  |  | 
SD012: hIGF-1R-Fc mutant E303G |  |  |  |  | NE (No effect (NE): measured KD within 2.5-fold of WT hIGF-1R-Fc) | NE (No effect (NE): measured KD within 2.5-fold of WT hIGF-1R-Fc) | W (Weak (W): measured KD between 2.5-10-fold higher than WT) | W (Weak (W): measured KD between 2.5-10-fold higher than WT) | W (Weak (W): measured KD between 2.5-10-fold higher than WT) | 0.3 | approximately 3 fold |  | 
SD013: hIGF-1R-Fc mutant D405K |  |  |  |  | NE (No effect (NE): measured KD within 2.5-fold of WT hIGF-1R-Fc) | NE (No effect (NE): measured KD within 2.5-fold of WT hIGF-1R-Fc) | NE (No effect (NE): measured KD within 2.5-fold of WT hIGF-1R-Fc) |  |  | 0.7 |  |  | 
SD014: hIGF-1R-Fc mutant K412A_A413Q |  |  |  |  | NE (No effect (NE): measured KD within 2.5-fold of WT hIGF-1R-Fc) | NE (No effect (NE): measured KD within 2.5-fold of WT hIGF-1R-Fc) | NE (No effect (NE): measured KD within 2.5-fold of WT hIGF-1R-Fc) | NE (No effect (NE): measured KD within 2.5-fold of WT hIGF-1R-Fc) | NE (No effect (NE): measured KD within 2.5-fold of WT hIGF-1R-Fc) | 0.6 |  |  | 
SD015: hIGF-1R-Fc mutant H464E (Table 20), E464H |  |  |  |  | S (Strong (S): binding to antibody was ablated by mutation) | S (Strong (S): binding to antibody was ablated by mutation) | NE (No effect (NE): measured KD within 2.5-fold of WT hIGF-1R-Fc) |  |  |  |  | complete ablation of the binding reaction | virtually no binding activity
SD016: hIGF-1R-Fc mutant D531Q_V532N |  |  |  |  | NE (No effect (NE): measured KD within 2.5-fold of WT hIGF-1R-Fc) | NE (No effect (NE): measured KD within 2.5-fold of WT hIGF-1R-Fc) | NE (No effect (NE): measured KD within 2.5-fold of WT hIGF-1R-Fc) |  |  | 2.0 |  |  | 
SD017: hIGF-1R-Fc mutant I650S |  |  |  |  | NE (No effect (NE): measured KD within 2.5-fold of WT hIGF-1R-Fc) | NE (No effect (NE): measured KD within 2.5-fold of WT hIGF-1R-Fc) | NE (No effect (NE): measured KD within 2.5-fold of WT hIGF-1R-Fc) |  |  | 2.0 |  |  | 
SD018: hIGF-1R-Fc mutant E665A |  |  |  |  | NE (No effect (NE): measured KD within 2.5-fold of WT hIGF-1R-Fc) | NE (No effect (NE): measured KD within 2.5-fold of WT hIGF-1R-Fc) | NE (No effect (NE): measured KD within 2.5-fold of WT hIGF-1R-Fc) |  |  | 1.7 |  |  | 
SD019: hIGF-1R-Fc mutant E739W L741F (Table 20), A739W_I741F (Table 17) |  |  |  |  | NE (No effect (NE): measured KD within 2.5-fold of WT hIGF-1R-Fc) | NE (No effect (NE): measured KD within 2.5-fold of WT hIGF-1R-Fc) | NE (No effect (NE): measured KD within 2.5-fold of WT hIGF-1R-Fc) |  |  | 1.9 |  |  | 
